Results on 24 molecules are retold here after patent US8501936B2 (priority 2009, dated 2013).

The assay concerns the target human FAK (Homo sapiens (Human), UniProt Q05397). As to conditions: read-out: FAK IC50.

human FAK, sequence (Q05397 whole entry): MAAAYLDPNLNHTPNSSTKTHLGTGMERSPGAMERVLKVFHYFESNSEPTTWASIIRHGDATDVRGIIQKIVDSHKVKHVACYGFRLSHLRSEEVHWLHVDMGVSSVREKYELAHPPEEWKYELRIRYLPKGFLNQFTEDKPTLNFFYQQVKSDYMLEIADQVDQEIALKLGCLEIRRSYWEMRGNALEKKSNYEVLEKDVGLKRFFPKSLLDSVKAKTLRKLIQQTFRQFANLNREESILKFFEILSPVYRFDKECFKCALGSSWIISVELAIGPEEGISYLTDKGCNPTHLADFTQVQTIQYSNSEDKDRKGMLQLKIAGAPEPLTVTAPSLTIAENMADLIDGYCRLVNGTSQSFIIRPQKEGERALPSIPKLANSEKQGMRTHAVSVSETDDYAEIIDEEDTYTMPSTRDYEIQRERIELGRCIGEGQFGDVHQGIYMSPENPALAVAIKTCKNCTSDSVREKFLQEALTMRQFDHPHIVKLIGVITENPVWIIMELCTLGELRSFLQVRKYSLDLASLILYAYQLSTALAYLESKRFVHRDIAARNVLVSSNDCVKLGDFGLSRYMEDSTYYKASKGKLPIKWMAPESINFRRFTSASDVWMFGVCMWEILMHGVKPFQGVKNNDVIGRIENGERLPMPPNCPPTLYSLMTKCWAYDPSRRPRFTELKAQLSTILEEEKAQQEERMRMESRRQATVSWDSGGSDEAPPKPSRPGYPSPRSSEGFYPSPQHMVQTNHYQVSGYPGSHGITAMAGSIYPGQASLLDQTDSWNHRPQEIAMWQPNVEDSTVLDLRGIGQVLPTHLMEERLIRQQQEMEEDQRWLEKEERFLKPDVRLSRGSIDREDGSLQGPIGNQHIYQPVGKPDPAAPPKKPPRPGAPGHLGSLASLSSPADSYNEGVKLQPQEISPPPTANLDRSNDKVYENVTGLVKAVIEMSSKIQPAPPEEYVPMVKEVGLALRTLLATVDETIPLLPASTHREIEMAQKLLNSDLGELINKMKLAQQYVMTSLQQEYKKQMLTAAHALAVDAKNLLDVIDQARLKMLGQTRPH

As usually defined, the IC50 is the concentration that gives 50% inhibition. Consider `CN1CCC(c2ccc(Nc3nc4c(NCc5ccccc5CN(C)S(C)(=O)=O)cccn4n3)cc2)CC1` [Example 159, N-Methyl-N-[2-({2-[4-(1-methyl-piperidin-4-yl)-phenylamino]-[1,2,4]triazolo[1,5-a]pyridin-8-ylamino}-methyl)-benzyl]-methanesulfonamide], for which the IC50 was 538 nM.
For the molecule `CN1C(=O)Cc2cc(Nc3nc4c(NCc5cccnc5N(C)S(C)(=O)=O)cccn4n3)ccc21` [Example 146, N-Methyl-N-(3-{[2-(1-methyl-2-oxo-2,3-dihydro-1H-indol-5-ylamino)-[1,2,4]triazolo[1,5-a]pyridin-8-ylamino]-methyl}-pyridin-2-yl)-methanesulfonamide], the IC50 stood at 106 nM.
The value for `CS(=O)(=O)c1ccccc1Nc1nc2c(Nc3ccccc3S(C)(=O)=O)cccn2n1` [Example 69, N(2),N(8)-Bis-(2-methanesulfonyl-phenyl)-[1,2,4]triazolo[1,5-a]pyridine-2,8-diamine] was 6500 nM; that for `CN1CCN(c2ccc(Nc3nc4c(-c5ccc(S(=O)(=O)N(C)C)cc5)cccn4n3)cc2)CC1` [Example 54, N,N-Dimethyl-4-{2-[4-(4-methyl-piperazin-1-yl)-phenylamino]-[1,2,4]triazolo[1,5-a]pyridin-8-yl}-benzenesulfonamide] was 787 nM.
The value for `CN1CCN(c2cccc(Nc3nc4c(OCc5ccccc5C#N)cccn4n3)c2)CC1` [Example 263, 2-{2-[3-(4-Methyl-piperazin-1-yl)-phenylamino]-[1,2,4]triazolo[1,5-a]pyridin-8-yloxymethyl}-benzonitrile] was 3000 nM; that for `COc1cccc(-c2cccn3nc(Nc4ccc5c(c4)CNC5)nc23)c1` [Example 346, (2,3-Dihydro-1H-isoindol-5-yl)-[8-(3-methoxy-phenyl)-[1,2,4]-triazolo[1,5-a]pyridin-2-yl]-amine] was 999 nM.
Turning to `CS(=O)(=O)c1ccc(-c2cccn3nc(Nc4cccc(C5CCNCC5)c4)nc23)cc1` [Example 182, [8-(4-Methanesulfonyl-phenyl)-[1,2,4]triazolo[1,5-a]pyridin-2-yl]-(3-piperidin-4-yl-phenyl)-amine], the IC50 amounted to 1000 nM.
As for `CS(=O)(=O)c1ccc(-c2cccn3nc(Nc4ccc(N5CCC(N6CCOCC6)CC5)cc4)nc23)cc1` [Example 49, [8-(4-Methanesulfonyl-phenyl)-[1,2,4]triazolo[1,5-a]pyridin-2-yl]-[4-(4-morpholin-4-yl-piperidin-1-yl)-phenyl]-amine], the IC50 is 251 nM.
For the molecule `CCN1CCN(c2cccc(Nc3nc4c(-c5ccc(S(C)(=O)=O)cc5)cccn4n3)c2)C(=O)C1` [Example 205, 4-Ethyl-1-{3-[8-(4-methanesulfonyl-phenyl)-[1,2,4]triazolo[1,5-a]pyridin-2-ylamino]-phenyl}-piperazin-2-one], the IC50 stood at 10000 nM.
For `O=c1[nH]cccc1-c1cccn2nc(Nc3ccc4ncccc4c3)nc12` [Example 276, 3-[2-(Quinolin-6-ylamino)-[1,2,4]triazolo[1,5-a]pyridin-8-yl]-1H-pyridin-2-one], the IC50 stood at 10000 nM.
For `FC1(F)Oc2cccc(-c3cccn4nc(Nc5ccc6c(c5)CCNCC6)nc34)c2O1` [Example 244, [8-(2,2-difluoro-1,3-benzodioxol-4-yl)-[1,2,4]triazolo[1,5-a]pyridin-2-yl]-(2,3,4,5-tetrahydro-1H-3-benzazepin-7-yl)amine], the IC50 worked out at 6500 nM.
As for `CC(C)Oc1ccccc1-c1cccn2nc(Nc3ccc4c(c3)CCNCC4)nc12` [Example 299, [8-(2-Isopropoxy-phenyl]-[1,2,4]triazolo[1,5a]pyridine-2-yl]-(2,3,4,5-tetrahydro-benzo[d]azepin-7-yl)-amine], the IC50 was found to be 999 nM.
As for `COc1ccccc1CNc1cccn2nc(Nc3ccncc3)nc12` [Example 401, N(8)-(2-Methoxy-benzyl)-N(2)-pyridin-4-yl-[1,2,4]triazolo[1,5-a]pyridine-2,8-diamine], the figure is 6500 nM; as for `CN1CCN(c2ccc(Nc3nc4c(Nc5cccc(S(C)(=O)=O)c5)cccn4n3)cc2)CC1` [Example 109, N(8)-(3-Methanesulfonyl-phenyl)-N(2)-[4-(4-methyl-piperazin-1-yl)-phenyl]-[1,2,4]triazolo[1,5-a]pyridine-2,8-diamine], 10000 nM.
As for `CN1CCN(c2cccc(Nc3nc4c(NCc5ccccc5N(C)S(C)(=O)=O)cccn4n3)c2)CC1` [Example 148, N-Methyl-N-[2-({2-[3-(4-methyl-piperazin-1-yl)-phenylamino]-[1,2,4]triazolo[1,5-a]pyridin-8-ylamino}-methyl)-phenyl]-methanesulfonamide], the figure is 14.6 nM; as for `CN1CCN(c2ccc(Nc3nc4c(NCC5CCCN5S(C)(=O)=O)cccn4n3)cc2)CC1` (stereo not drawn) [Example 170, N(8)-(1-Methanesulfonyl-pyrrolidin-2-ylmethyl)-N(2)-[4-(4-methyl-piperazin-1-yl)-phenyl]-[1,2,4]triazolo[1,5-a]pyridine-2,8-diamine], 872 nM; as for `COc1ccc(Nc2nc3c(-c4ccc(S(C)(=O)=O)cc4)cccn3n2)cc1` [Example 19, [8-(4-Methanesulfonyl-phenyl)-[1,2,4]triazolo[1,5-a]pyridin-2-yl]-(4-methoxy-phenyl)-amine], 1580 nM.
On to `COc1cc(C(F)(F)F)ccc1-c1cccc2nc(Nc3ccc4c(c3)CCN(CCS(C)(=O)=O)CC4)nn12` [Example 238], for which the IC50 worked out at 1950 nM.
As for `CC(C)Oc1ccc(C(F)(F)F)cc1-c1cccn2nc(Nc3ccc4c(c3)CCN(CC(=O)N(C)C)CC4)nc12` [Example 326, 2-{7-[8-(2-Isopropoxy-5-trifluoromethyl-phenyl)-[1,2,4]triazolo[1,5-a]pyridin-2-ylamino]-1,2,4,5-tetrahydro-3-benzazepin-3-yl}-N,N-dimethyl-acetamide], the IC50 stood at 5500 nM.
The value for `CN1CCN(c2ccc(Nc3nc4c(-c5cccc(N(C)S(C)(=O)=O)c5)cccn4n3)cc2)CC1` [Example 127, N-Methyl-N-(3-{2-[4-(4-methyl-piperazin-1-yl)-phenylamino]-[1,2,4]triazolo[1,5-a]pyridin-8-yl}-phenyl)-methanesulfonamide] was 3130 nM.
The value for `COc1cccc(CNc2cccn3nc(Nc4ccncc4)nc23)c1` [Example 399, N(8)-(3-Methoxy-benzyl)-N(2)-pyridin-4-yl-[1,2,4]triazolo[1,5-a]pyridine-2,8-diamine] was 10000 nM.
`CN1CCN(c2ccc(Nc3nc4c(OCc5cccc(Cl)c5)cccn4n3)cc2)CC1` [Example 260, [8-(3-Chloro-benzyloxy)-[1,2,4]triazolo[1,5-a]pyridin-2-yl]-[4-(4-methyl-piperazin-1-yl)-phenyl]-amine]: the IC50 amounted to 1100 nM.
As for `CS(=O)(=O)CCN1CCC(c2cccc(Nc3nc4c(-c5ccc(S(C)(=O)=O)cc5)cccn4n3)c2)CC1` [Example 190, {3-[1-(2-Methanesulfonyl-ethyl)-piperidin-4-yl]-phenyl}-[8-(4-methanesulfonyl-phenyl)-[1,2,4]triazolo[1,5-a]pyridin-2-yl]-amine], the figure is 580 nM; as for `CN(C)C(=O)CN1CCC(c2ccc(Nc3nc4c(-c5cnn(-c6ccc(F)cc6)c5)cccn4n3)cc2)CC1` [Example 283, 2-[4-(4-{8-{1-(4-Fluoro-phenyl)1H-pyrazol-4-yl}-[1,2,4]triazolo[1,5-a]pyridine-2-ylamino}-phenyl)-piperidin-1-yl]-N,N-dimethyl-acetamide], 1370 nM.
